{
  "source": "patent US11298402B2",
  "about": "“Lysosomal degradation of lipids and proteins and method of use thereof” (University of Ottawa, priority 2015, dated 2022)",
  "key": {"[1]": {"tested_on": "McA-RH7777 cells (A18-C3)", "test": "Live imaging of lysosomal motility and lysosome-CLD interaction (kiss-and-run)", "type": "cell-based, rat", "protocol": "In certain non-limiting examples described herein, McA-RH7777 cells stably expressing human apoB-100 and human apoC-III (designated A18-C3) were used for the studies. […] In addition, these studies, particularly those concerning EPA- or DHA-triggered lysosomal motility and CLD degradation, were also performed using primary rat hepatocytes. Transfection of plasmids encoding proteins of interest, or transfection of siRNA specific for silencing target gene expression, was achieved using the FuGENE HP Extreme reagent (Roche). Representative gene silencing siRNA sequences, which are not meant to be limiting, are described in Table 1, and plasmids encoding proteins of interest are described in Table 2. The effectiveness of siRNA silencing was verified by Western-blotting of cellular content of the target proteins, and by intracellular localization assay using siRNA-Tracker (Mirus Bioscience). Twenty-four h after plasmid transfection, or 48 h after siRNA transfection, the cells were cultured in lipid-rich media containing fetal bovine serum (20%) and OA (0.4 mM). The lipid-laden cells were switched to fresh media supplemented with OA or EPA (0.4 mM). In live imaging experiments, LipidTOX Red (Life Technologies) and LysoTracker (Life Technologies) were added to media prior to EPA treatment, to visualize lipid droplets and lysosomes, respectively. For visualizing peroxisomes, Peroxisome-GFP (Invitrogen) was introduced to the cells 24 h prior to experiments. Quantification of cell lipid contents was achieved either by direct mass measurement (HPTLC) and counting the number of lipid droplets using Image J Lipid Droplet Counter Plug-In, or indirectly by Western blot analysis of cellular content of ADRP. Secretion of apoB and TG-rich lipoprotein was determined by Western blot analysis and metabolic labeling. Mitochondrial β-oxidation was measured using MitoSOX Red (Life Technologies) in situ. Autophagic flux was determined by using Cyto-ID assay (Enzo Life Science) and by monitoring GFP-LC3 clustering in situ. Interaction of Arl8b and subunits of the HOPS complex was determined in situ by the proximity ligation assay (Olink Biosience). Cytoplasmic pH was measured using the cytosolic pHrodo indicator reagent (Invitrogen). Live imaging of fluorescent-tagged proteins was performed 1 h post-EPA treatment. Cells were also collected at the time of EPA treatment for transmission EM and tomography, as well as immuno-EM. For movies, cells were imaged at 60 sec intervals every 5 min, for a total of 30 min.\nCells were grown on 35-mm glass bottom dishes (Ibidi GmbH München, Germany) for 16 h in DMEM supplemented with FBS (20%) and OA (0.4 mM). Cells were imaged using a Zeiss 510 META laser scanning confocal microscope with a heated CO2-controlled stage (5% CO2 at 37° C.). Images were captured at a frame-rate of 30 frame/sec using a 63×. N.A.1.4 objective. Recommended laser lines and filter combinations were used for each dye. For visualization of lipid droplets, lysosomes, mitochondria, and mitochondrial β-oxidation, the respective reagents LipidTOX Red (Invitrogen), LysoTracker (Life Technology), MitoTracker (Life Technology), MitoSox Red (Invitrogen), and Peroxisome-GFP BacMam2.0 (Invitrogen) were introduced into the cells, according to manufacturers' recommendations, prior to EPA treatment.\nCells were cultured with lipid-rich media containing OA (0.4 mM) for 16 h. The lipid-laden cells were switched to fresh media containing EPA (0.4 mM) for 1 h, and the lysosomal movement towards lipid droplets was recorded by time-lapse microscopy. Fluorescent intensity of lysosomal signals at the periphery of selected individual lipid droplet was measured using Image J Live Intensity Profiler Plug-in^31-33 over a period of 40 sec. Quantification for each condition was carried out for 60 individual lipid droplets from three independent experiments. Constant threshold was applied to all of the images in each experiment."}, "[2]": {"tested_on": "McA-RH7777 cells (A18-C3)", "test": "Measurement of cytosolic pH (pHrodo)", "type": "cell-based, rat", "details": "OA or EPA treatment", "protocol": "In certain non-limiting examples described herein, McA-RH7777 cells stably expressing human apoB-100 and human apoC-III (designated A18-C3) were used for the studies. […] In addition, these studies, particularly those concerning EPA- or DHA-triggered lysosomal motility and CLD degradation, were also performed using primary rat hepatocytes. Transfection of plasmids encoding proteins of interest, or transfection of siRNA specific for silencing target gene expression, was achieved using the FuGENE HP Extreme reagent (Roche). […] Quantification of cell lipid contents was achieved either by direct mass measurement (HPTLC) and counting the number of lipid droplets using Image J Lipid Droplet Counter Plug-In, or indirectly by Western blot analysis of cellular content of ADRP. Secretion of apoB and TG-rich lipoprotein was determined by Western blot analysis and metabolic labeling. Mitochondrial β-oxidation was measured using MitoSOX Red (Life Technologies) in situ. Autophagic flux was determined by using Cyto-ID assay (Enzo Life Science) and by monitoring GFP-LC3 clustering in situ. Interaction of Arl8b and subunits of the HOPS complex was determined in situ by the proximity ligation assay (Olink Biosience). Cytoplasmic pH was measured using the cytosolic pHrodo indicator reagent (Invitrogen). […]"}, "[3]": {"tested_on": "hepatic cells", "test": "Prolonged oleate treatment (OA-induced steatosis) of hepatic cells", "type": "cell-based", "details": "oleate 0.4 mM for up to 3 days", "from_the_text": "FIG. 36 illustrates that the LD content in cells cultured under lipid-rich conditions may be manipulated by expression of different forms of Arl8b. Images in the top row show position of lysosomes in cells cultured in a lipid-rich medium (i.e. supplemented with oleate) for up to 4 days. After 1-day treatment with oleate, lysosomes (stained with LysoTracker, green) were accumulated in the perinuclear regions of cells. However after 2-day oleate treatment, lysosomes were relocated towards the LDs at cell periphery. The relocation of lysosomes from the perinuclear region toward cell periphery indicates perturbed lysosomal motility under oleate-treatment conditions, which leads to prolonged association of lysosomes with LDs. Accumulation/higher interaction of lysosomes on LDs became more pronounced after 3- and 4-day treatment with oleate, with clear rings of lysosomes around LDs. Expression of the GDP-bound form of Arl8b, or Arl8b^T34N (or Arl8b “DN”, dominant negative), protects hepatocytes from accumulation of LDs upon long-term treatment with oleate. Note that even after 3 days, cells expressing Arl8b “DN” were healthy and accumulated low numbers of LDs (middle row). In contrast, expression of the GTP-bound form of Arl8b, or Arl8b^Q75L (or Arl8b “DA”, dominant active), exacerbated accumulation of LDs in cells (images in the bottom row). In fact, the cells could not tolerate long-term treatment and started to die after day 2. This situation may be similar to that in advanced levels of fatty liver, which causes hepatocyte apoptosis;\nIn these cells, lysosomes were continuously in contact with CLD, indicative of stalled lysosomal motility. This persistent lysosomal interaction with CLDs (i.e. “kiss” without “run”) clearly indicates the interfered process of microautophagy and lack of a mechanism in the cells, after prolonged OA treatment, that facilitates dissociation of lysosomes from CLDs, blocking the engulfment process. Thus, phenotypically, accumulation of CLD in cells cultured in lipid-rich media (e.g. supplementation with 0.4 mM OA) is invariably associated with a compromised lysosomal motility (i.e. kiss-and-run)."}},
  "data": [
    {"smiles": "CCCCCCCC/C=C\\CCCCCCCC(=O)O", "note": "[OA, oleic acid, reference compound]", "values": [
      {"measurement": "lysosomal motility and direct lysosomal interaction with CLD", "setting": "[1]; fatty acid added to lipid-laden cells, live imaging", "result": "reduced levels of interaction between lysosomes and lipid droplets"},
      {"measurement": "activation of microautolipophagy", "setting": "[1]; oleate treatment", "result": "transient and is of low magnitude"},
      {"measurement": "duration of the brief activation of microautolipophagy", "setting": "[1]; oleate treatment", "result": "10 to 15", "unit": "min"},
      {"measurement": "cytoplasmic pH", "setting": "[2]", "result": "neutral"},
      {"measurement": "steatosis (CLD accumulation)", "setting": "[3]", "result": "developed severe steatosis"}
    ]}
  ]
}
